Test results from ChEMBL document CHEMBL1146975, “Identification of cytotoxic, T-cell-selective 1,4-benzodiazepine-2,5-diones” (Bioorg Med Chem Lett, 2006).
pEC50: −log10 of the molar value.

How the values were obtained:
[1] = test system: Jurkat; test: Cytotoxicity against human Jurkat T cells; assay type: functional, cell-based
[2] = test system: Ramos; test: Cytotoxicity against human Ramos B cells; assay type: functional, cell-based
[3] = Selectivity for Jurkat T cells over Ramos B cells; assay type: functional

Row | SMILES | pEC50 [1] | pEC50 [2] | Ratio EC50 [3]
1 | CN1C(=O)C(Cc2ccc(-c3ccccc3[N+](=O)[O-])cc2)NC(=O)c2cc(Cl)ccc21 (stereo not drawn) | < 4.70 | < 4.70 | 
2 | CN1C(=O)C(Cc2ccc(-c3cccc(O)c3)cc2)NC(=O)c2cc(Cl)ccc21 (stereo not drawn) | 5.82 | 5.40 | 2.7
3 | CN1C(=O)C(CCc2ccccc2)NC(=O)c2cc(Cl)ccc21 (stereo not drawn) | < 4.10 | < 4.00 | 
4 | CN1C(=O)C(Cc2ccc(-c3cccc([N+](=O)[O-])c3)cc2)NC(=O)c2cc(Cl)ccc21 (stereo not drawn) | 5.82 | 5.38 | 2.8
5 | CN1C(=O)C(Cc2ccc(-c3ccncc3)cc2)NC(=O)c2cc(Cl)ccc21 (stereo not drawn) | 6.30 | 5.52 | 6
6 | CN1C(=O)C(Cc2c[nH]c3ccccc23)NC(=O)c2cc(Cl)ccc21 (stereo not drawn) | 4.58 | 5.04 | 
7 | CN1C(=O)C(Cc2ccc(-c3cccc(Cl)c3)cc2)NC(=O)c2cc(Cl)ccc21 (stereo not drawn) | 5.70 | 5.82 | 0.8
8 | CN1C(=O)C(Cc2ccc(-c3cccc(C(F)(F)F)c3)cc2)NC(=O)c2cc(Cl)ccc21 (stereo not drawn) | 5.35 | 5.40 | 0.9
9 | CN1C(=O)C(Cc2cccc3ccccc23)NC(=O)c2cc(Cl)ccc21 (stereo not drawn) | 4.69 | 4.90 | 
10 | CN1C(=O)C(Cc2ccc3ccccc3c2)NC(=O)c2cc(Cl)ccc21 (stereo not drawn) | 5.52 | 4.97 | 
11 | CN1C(=O)C(Cc2ccc(-c3cccnc3)cc2)NC(=O)c2cc(Cl)ccc21 (stereo not drawn) | 6.22 | 5.22 | 10
12 | CN1C(=O)C(Cc2ccc(-c3ccc(C(F)(F)F)cc3)cc2)NC(=O)c2cc(Cl)ccc21 (stereo not drawn) | 5.28 | 5.32 | 0.9
13 | CN1C(=O)C(Cc2ccccc2)NC(=O)c2cc(Cl)ccc21 (stereo not drawn) | < 4.10 | < 4.00 | 
14 | CN1C(=O)C(Cc2ccc(-c3cccc(Br)c3)cc2)NC(=O)c2cc(Cl)ccc21 (stereo not drawn) | 5.32 | 5.04 | 1.9
15 | Cc1ccc(-c2ccc(CC3NC(=O)c4cc(Cl)ccc4N(C)C3=O)cc2)cc1 (stereo not drawn) | 5.44 | 5.16 | 1.9
16 | CN1C(=O)C(Cc2ccc(-c3ccc(Cl)cc3)cc2)NC(=O)c2cc(Cl)ccc21 (stereo not drawn) | 5.19 | 5.19 | 1
17 | Cc1cccc(-c2ccc(CC3NC(=O)c4cc(Cl)ccc4N(C)C3=O)cc2)c1 (stereo not drawn) | 5.51 | 5.55 | 0.9
18 | CN1C(=O)C(Cc2ccc(-c3ccoc3)cc2)NC(=O)c2cc(Cl)ccc21 (stereo not drawn) | 6.52 | 5.70 | 6.5
19 | Cc1ccccc1-c1ccc(CC2NC(=O)c3cc(Cl)ccc3N(C)C2=O)cc1 (stereo not drawn) | 5.27 | 5.17 | 1.2
20 | CN1C(=O)C(Cc2ccc(-c3ccccc3Cl)cc2)NC(=O)c2cc(Cl)ccc21 (stereo not drawn) | 5.08 | 4.99 | 1.2
21 | CN1C(=O)C(Cc2ccc(-c3ccc(O)cc3)cc2)NC(=O)c2cc(Cl)ccc21 (stereo not drawn) | 5.82 | 5.22 | 4
22 | CN1C(=O)C(Cc2ccc(C(C)(C)C)cc2)NC(=O)c2cc(Cl)ccc21 (stereo not drawn) | 5.09 | 4.79 | 
23 | CN1C(=O)C(Cc2ccc(-c3ccc([N+](=O)[O-])cc3)cc2)NC(=O)c2cc(Cl)ccc21 (stereo not drawn) | 5.42 | 5.00 | 2.6
24 | CN1C(=O)C(Cc2ccc(-c3ccc(Br)cc3)cc2)NC(=O)c2cc(Cl)ccc21 (stereo not drawn) | 5.01 | < 4.70 | >2
25 | CN1C(=O)C(Cc2ccccc2Cc2ccccc2)NC(=O)c2cc(Cl)ccc21 (stereo not drawn) | 4.75 | 4.73 | 
26 | CN1C(=O)C(Cc2cccc(-c3ccccc3)c2)NC(=O)c2cc(Cl)ccc21 (stereo not drawn) | 5.27 | 4.72 | 
27 | CN1C(=O)C(Cc2ccc(-c3ccc(C(=O)O)cc3)cc2)NC(=O)c2cc(Cl)ccc21 (stereo not drawn) | 4.82 | 4.50 | 2.1
28 | CN1C(=O)C(Cc2ccc(/C=C/c3ccccc3)cc2)NC(=O)c2cc(Cl)ccc21 (stereo not drawn) | 5.12 | 4.30 | 
29 | CN1C(=O)C(Cc2ccc(-c3ccccc3)cc2)NC(=O)c2cc(Cl)ccc21 (stereo not drawn) | 5.64 | 5.21 | 
30 | CN1C(=O)C(Cc2ccc(-c3cccc(C(=O)O)c3)cc2)NC(=O)c2cc(Cl)ccc21 (stereo not drawn) | < 4.70 | < 4.70 | 
